This note sets out measurements from the supplement of paper PMC10307832.

Common to all, as to assay: relative viability (nuclei count vs DMSO), 5 days (fraction); higher = more cells survive
Compound in assay [1]: C1COCCN1CC2=CC(=O)C(=CO2)OCCCCCSC3=C4C=CC(=CC4=NC=C3)C(F)(F)F [EHT 1864] + Nc1nc2[nH]cc(CCc3ccc(C(=O)N[C@@H](CCC(=O)O)C(=O)O)cc3)c2c(=O)[nH]1 [Pemetrexed] (partner 0.2 µM)
In short, it runs like this: (§1)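 One day after seeding in 1536-well plates, lung cancer cell lines were dosed by pin tool. Dosing was either single-drug or a fixed anchor-drug dose plus five library-drug doses (not always all listed) in √10 steps. After 5 days, nuclei were stained in one fix-and-stain step and counted on 4× images, and relative viability is the nuclei count of treated wells over that of vehicle wells, given as the median of duplicate plates.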

Compound in assay [2]: C1COCCN1CC2=CC(=O)C(=CO2)OCCCCCSC3=C4C=CC(=CC4=NC=C3)C(F)(F)F [EHT 1864] + O=C(c1cc(Cc2n[nH]c(=O)c3ccccc23)ccc1F)N1CCN(C(=O)C2CC2)CC1 [Olaparib] (partner 8 µM)
Summed up: as §1

Compound in assay [3]: C1COCCN1CC2=CC(=O)C(=CO2)OCCCCCSC3=C4C=CC(=CC4=NC=C3)C(F)(F)F [EHT 1864] + Cc1nc(NC(=O)N2CCC[C@H]2C(N)=O)sc1-c1ccnc(C(C)(C)C(F)(F)F)c1 [Alpelisib] (partner 2 µM)
Summed up:
as §1

Compound in assay [4]: C1COCCN1CC2=CC(=O)C(=CO2)OCCCCCSC3=C4C=CC(=CC4=NC=C3)C(F)(F)F [EHT 1864] + CC(C)C[C@H](NC(=O)[C@H](Cc1ccccc1)NC(=O)c1cnccn1)B(O)O [Bortezomib] (partner 0.002 µM)
Summed up:
as §1

As to NCI-H2085, the relative viability in assay [1] (first compound 0.04 µM) stood at 0.908; in assay [1] (first compound 0.1265 µM) it was 0.646; in assay [1] (first compound 0.4 µM), 0.969; in assay [1] (first compound 1.265 µM) it was 0.967; in assay [1] (first compound 4 µM), 0.882; in assay [2] (first compound 0.04 µM), 0.783. Moreover, the relative viability in assay [2] (first compound 0.1265 µM) is 0.762; in assay [2] (first compound 0.4 µM), 0.754; in assay [2] (first compound 1.265 µM), 0.732; in assay [2] (first compound 4 µM) it was 0.713; in assay [3] (first compound 0.04 µM), 0.998; in assay [3] (first compound 0.1265 µM), 0.875. Moreover, the relative viability in assay [3] (first compound 0.4 µM) came out at 0.9; in assay [3] (first compound 1.265 µM), 0.982; in assay [3] (first compound 4 µM), 0.869; in assay [4] (first compound 0.04 µM), 0.989; in assay [4] (first compound 0.1265 µM), 0.785; in assay [4] (first compound 0.4 µM) it was 0.962. Moreover, the relative viability in assay [4] (first compound 1.265 µM) was 0.971; in assay [4] (first compound 4 µM), 0.782.
In the case of NCI-H2087, the relative viability in assay [1] (first compound 0.04 µM) came to 0.691; in assay [1] (first compound 0.4 µM), 0.596; in assay [1] (first compound 1.265 µM) it was 0.642; in assay [1] (first compound 4 µM) it was 0.657; in assay [2] (first compound 0.04 µM), 0.545; in assay [2] (first compound 0.4 µM), 0.468. The relative viability stood at 0.545 in assay [2] (first compound 1.265 µM); 0.534 in assay [2] (first compound 4 µM); 0.929 in assay [3] (first compound 0.04 µM); 1 in assay [3] (first compound 0.1265 µM); 0.902 in assay [3] (first compound 0.4 µM); 1.1 in assay [3] (first compound 1.265 µM). Further, the relative viability in assay [3] (first compound 4 µM) amounted to 0.802; in assay [4] (first compound 0.04 µM), 0.629; in assay [4] (first compound 0.1265 µM), 0.569; in assay [4] (first compound 0.4 µM), 0.753; in assay [4] (first compound 1.265 µM) it was 0.739; in assay [4] (first compound 4 µM) it was 0.781.
Regarding NCI-H2126, the relative viability is 0.707 in assay [1] (first compound 0.04 µM); 0.603 in assay [1] (first compound 0.1265 µM); 0.661 in assay [1] (first compound 0.4 µM); 0.726 in assay [1] (first compound 1.265 µM); 0.633 in assay [1] (first compound 4 µM); 0.916 in assay [2] (first compound 0.04 µM). Besides, the relative viability in assay [2] (first compound 0.1265 µM) is 0.926; in assay [2] (first compound 0.4 µM), 0.887; in assay [2] (first compound 1.265 µM), 0.882; in assay [2] (first compound 4 µM), 0.915; in assay [3] (first compound 0.04 µM), 0.755; in assay [3] (first compound 0.1265 µM), 0.757. For the same cell line, the relative viability was 0.718 in assay [3] (first compound 0.4 µM); 0.801 in assay [3] (first compound 1.265 µM); 0.748 in assay [3] (first compound 4 µM); 1.16 in assay [4] (first compound 0.04 µM); 1.1 in assay [4] (first compound 0.1265 µM); 1.11 in assay [4] (first compound 0.4 µM). Also, the relative viability in assay [4] (first compound 1.265 µM) came out at 1.09; in assay [4] (first compound 4 µM), 1.
As for NCI-H2228, the relative viability came to 0.323 in assay [1] (first compound 0.04 µM); 0.341 in assay [1] (first compound 0.1265 µM); 0.318 in assay [1] (first compound 0.4 µM); 0.34 in assay [1] (first compound 4 µM); 0.614 in assay [2] (first compound 0.04 µM); 0.661 in assay [2] (first compound 0.1265 µM). In addition, the relative viability came to 0.66 in assay [2] (first compound 0.4 µM); 0.61 in assay [2] (first compound 4 µM); 0.776 in assay [3] (first compound 0.04 µM); 0.813 in assay [3] (first compound 0.1265 µM); 0.732 in assay [3] (first compound 0.4 µM); 0.594 in assay [3] (first compound 1.265 µM). Moreover, the relative viability in assay [3] (first compound 4 µM) came out at 0.713; in assay [4] (first compound 0.04 µM), 0.935; in assay [4] (first compound 0.1265 µM), 1.13; in assay [4] (first compound 0.4 µM), 0.984; in assay [4] (first compound 1.265 µM) it was 0.904; in assay [4] (first compound 4 µM), 1.11.
For NCI-H2347, the relative viability was 0.402 in assay [1] (first compound 0.04 µM); 0.403 in assay [1] (first compound 0.1265 µM); 0.459 in assay [1] (first compound 0.4 µM); 0.465 in assay [1] (first compound 1.265 µM); 0.419 in assay [1] (first compound 4 µM); 0.624 in assay [2] (first compound 0.04 µM). In addition, the relative viability in assay [2] (first compound 0.1265 µM) is 0.452; in assay [2] (first compound 0.4 µM), 0.53; in assay [2] (first compound 1.265 µM), 0.541; in assay [2] (first compound 4 µM) it was 0.402; in assay [3] (first compound 0.04 µM) it was 1.02; in assay [3] (first compound 0.1265 µM), 0.868. Further, the relative viability in assay [3] (first compound 0.4 µM) was found to be 0.989; in assay [3] (first compound 1.265 µM), 1.03; in assay [3] (first compound 4 µM), 1.2; in assay [4] (first compound 0.04 µM), 1.24; in assay [4] (first compound 0.4 µM) it was 1.13; in assay [4] (first compound 1.265 µM), 0.894. Besides, the relative viability in assay [4] (first compound 4 µM) was 0.995.
With NCI-H2405, the relative viability in assay [1] (first compound 0.04 µM) came out at 1.13; in assay [1] (first compound 0.1265 µM), 0.945; in assay [1] (first compound 0.4 µM) it was 1.03; in assay [1] (first compound 1.265 µM) it was 1.07; in assay [1] (first compound 4 µM), 0.973; in assay [2] (first compound 0.04 µM) it was 0.895. Moreover, the relative viability in assay [2] (first compound 0.1265 µM) was determined as 0.815; in assay [2] (first compound 0.4 µM), 0.912; in assay [2] (first compound 1.265 µM), 0.788; in assay [2] (first compound 4 µM), 0.853; in assay [3] (first compound 0.04 µM), 0.789; in assay [3] (first compound 0.1265 µM), 0.767. Also, the relative viability in assay [3] (first compound 0.4 µM) worked out at 0.877; in assay [3] (first compound 4 µM), 0.719; in assay [4] (first compound 0.04 µM) it was 1.05; in assay [4] (first compound 0.1265 µM) it was 0.945; in assay [4] (first compound 0.4 µM), 0.84; in assay [4] (first compound 1.265 µM), 0.76. Also, the relative viability in assay [4] (first compound 4 µM) turned out to be 1.02.
Take NCI-H3122: the relative viability in assay [1] (first compound 0.04 µM) was determined as 0.189; in assay [1] (first compound 0.1265 µM), 0.179; in assay [1] (first compound 0.4 µM), 0.206; in assay [1] (first compound 1.265 µM), 0.202; in assay [1] (first compound 4 µM) it was 0.185; in assay [2] (first compound 0.04 µM) it was 0.556. The relative viability in assay [2] (first compound 0.1265 µM) turned out to be 0.58; in assay [2] (first compound 0.4 µM), 0.627; in assay [2] (first compound 1.265 µM), 0.596; in assay [2] (first compound 4 µM), 0.612; in assay [3] (first compound 0.04 µM) it was 0.869; in assay [3] (first compound 0.1265 µM), 0.751. Moreover, the relative viability was 0.774 in assay [3] (first compound 0.4 µM); 0.732 in assay [3] (first compound 1.265 µM); 0.766 in assay [3] (first compound 4 µM); 1.03 in assay [4] (first compound 0.04 µM); 0.973 in assay [4] (first compound 0.1265 µM); 0.96 in assay [4] (first compound 0.4 µM). Also, the relative viability in assay [4] (first compound 1.265 µM) amounted to 0.99; in assay [4] (first compound 4 µM), 0.965.
